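Cultured in 96-well plates, cells were exposed to test compound for 48 hours across five concentrations. GI50 is the concentration that inhibits growth by half. Definition used: TGI = concentration required for complete inhibition of growth.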
Key:
Assay in all cases: NCI anticancer screen, dose series, 48 h
OVCAR-8 ovarian = system: OVCAR-8 ovarian
DU-145 prostate = system: DU-145 prostate
HT29 colon = system: HT29 colon
CAKI-1 renal = system: CAKI-1 renal
M14 melanoma = system: M14 melanoma
NCI-H522 lung = system: NCI-H522 lung
MCF7 breast = system: MCF7 breast
T-47D breast = system: T-47D breast
A498 renal = system: A498 renal
NCI-H226 lung = system: NCI-H226 lung

SMILES	TGI (OVCAR-8 ovarian) [µM]	TGI (DU-145 prostate) [µM]	TGI (HT29 colon) [µM]	TGI (CAKI-1 renal) [µM]	TGI (M14 melanoma) [µM]	TGI (NCI-H522 lung) [µM]	TGI (MCF7 breast) [µM]	TGI (T-47D breast) [µM]	TGI (A498 renal) [µM]	TGI (NCI-H226 lung) [µM]	GI50 (OVCAR-8 ovarian) [µM]	GI50 (CAKI-1 renal) [µM]	GI50 (M14 melanoma) [µM]	GI50 (NCI-H522 lung) [µM]	GI50 (A498 renal) [µM]	GI50 (NCI-H226 lung) [µM]
CCCC(CC)c1cc(O)c(O)cc1C(CC)CCC (stereo not drawn)	> 10	> 10	> 10	> 10	> 10	> 10	> 10	> 10	> 10	> 10						
COC(=O)c1c(C)cccc1C1CN=NC12Cc1cccc(C)c1C2=O (stereo not drawn)	> 100	> 100	> 100	> 100	25.5	75.7	> 100	> 100	> 100	98.4						
COc1ccc(C[C@H]2COC(=O)[C@@H]2Cc2ccccc2)cc1OC	> 100	> 100	> 100				> 100	> 100	> 100	> 100						
N#CC(NNC(=O)c1ccccc1O)c1ccc(O)cc1 (stereo not drawn)	> 100		> 100	98.9	> 100	> 100				55.1						
CC(C)(C)C(=O)O[C@H]1C=C[C@@H](O)[C@@H]2[C@H]1[C@@H]1C=C[C@H]2C1	> 100	> 100		> 100	> 100	79.8	39.9	> 100	50.8							
CC(C)CCCC(C)[C@H]1CC[C@H]2NCCCC[C@]12C (stereo partly drawn)	> 25.4	25.6	5.54	22.8	4.29		4.37	8.93	26.6	29						
Cc1cc(=O)[nH]c(NN2C(Cl)C(=O)C2c2ccco2)n1 (stereo not drawn)	> 100		> 100		> 100											
S=c1oc(CCCCCCCCc2nn(CNc3ccc(Cl)cc3)c(=S)o2)nn1CNc1ccc(Cl)cc1		> 100	> 100	> 100	> 100	> 100	> 100		> 100	> 100						
COC(C/C=C\C=C\CC/C=C/CC(C)/C=C/C(=C\C(=O)O)CC(=O)O)/C(C)=C\C=C(/C)C(=O)O (stereo not drawn)		> 100	> 100	> 100	> 100	> 100			> 100							
C=C1CN=C(Nc2ccc(F)cc2F)S1	> 100	> 100	> 100	> 100			> 100	> 100	> 100							
Clc1ccc(Cc2nc3ccccc3nc2-c2cccc(Cl)c2)cc1	14.2	40.6	6	8.51	5.06	3.41	13	> 100		38.4						
COc1ccccc1NC(=O)CSC(N)=O	> 100		> 100	> 100	> 100	> 100			> 100	> 100						
CC(=O)Nc1nc(C)c(S(=O)(=O)NC(=O)N2c3ccccc3CCc3ccccc32)s1	> 100	> 100	> 100	> 100	> 100	> 100	> 100	> 100	> 100							
O=C1CCc2cc3c(cc21)C(C(=O)O)CC3 (stereo not drawn)	> 100	> 100	> 100	> 100	> 100	> 100	> 100	> 100		> 100						
Cc1ccc(C(=O)NN=C(/N=N/c2cccc(C)c2)c2ccc(N(C)C)cc2)cc1	> 100	> 100	> 100	> 100	> 100	> 100	> 100	> 100		> 100						
NNc1nnc(-c2ccccc2)nc1Cc1ccccc1	39.1		> 100	> 100	45.5	> 100				6.43						
OCC1c2ccccc2-n2nc(-c3ccccc3)c(O)c21 (stereo not drawn)	37.6	> 100	76.4	31.7		48.7	36.7	> 100		> 100						
O=c1oc2ccccc2c(O)c1C(c1ccc(O)cc1)c1c(O)c2ccccc2oc1=O	> 100	> 100	> 100	> 100		62.8		> 100	> 100	> 100						
Cc1sc2nc3n(sc4nc5sc(C)c(C)c5c(=O)n43)c(=O)c2c1C	> 100	> 100	> 100	> 100	> 100	32	> 100	12		> 100						
NC(=O)CC[C@H]1C(=O)N=C(N)N1C(=O)OCc1ccccc1	> 100	> 100	> 100	> 100		> 100	> 100		> 100	> 100						
CCOC(=O)c1c(SCCN2CCCCC2)n(-c2ccccc2)c(=S)n(-c2ccccc2)c1=O	54.1	> 55.1	32.1		81.6	35.4	18.3	8.27		16.9						
CCn1c(O)c(C(=O)NC(C)c2ccc([N+](=O)[O-])cc2)c(=O)n(CC)c1=S (stereo not drawn)		8.98	5.17	10.1	6.04		9.19	14.2		11.9						
CCOC(=O)/C(C1=N[C@H](C(=O)OCC)CS1)=C(\O)c1ccccc1	> 100		> 100	> 100	> 100	> 100				> 100						
C=C1C(=O)O[C@H]2[C@H]1CC/C(COC(=O)/C=C/C(=O)OC/C1=C/CC[C@@]3(C)O[C@H]3[C@H]3OC(=O)C(=C)[C@@H]3CC1)=C\CC[C@@]1(C)O[C@@H]21	3.05			3.43	3.89	0.374			> 100	3.11	1.53	1.08	1.26	0.171	> 100	1.42
CC(=O)NCC1OC2COC(c3ccccc3)OC2C2N=C(c3ccccc3)OC12 (stereo not drawn)	> 100	> 100	> 100	> 100	> 100		> 100	57.7	> 100	> 100						
